Data set [1] can be described thus: Competitive slurry conversion of pseudopolymorphic form and form A1 (1:1) in Water/Methanol and Water/Ethanol mixtures. The data set is classed as physicochemical. As for the experimental part: b) Additionally, crystalline tetrasolvates according invention and especially crystalline forms S1 and S2 can be manufactured by competitive slurry conversion experiments with a mixture of a pseudopolymorphic form (for example S1, S2, S3 or mixtures of these) with form A1 (1:1) in Water/Methanol and Water/Ethanol mixtures with different alcohol contents at different temperatures, respectively.
Approx. 20 mg of a pseudopolymorphic form (for example S1, S2, S3 or mixtures of these) and 20 mg of form A1 of Cilengitide are dispersed in 300 μl Water/alcohol mixture at 0° C. or room temperature (25° C.). The dispersion is stirred for 24 h and additionally for 3 weeks at RT (25° C.) (long-term experiment) by a magnetic stirrer and finally filtered
Approx. 20 mg of a pseudopolymorphic form (for example S1, S2, S3 or mixtures of these) and 20 mg of form A1 of Cilengitide are dispersed in 300 μl Water/alcohol mixture at 50° C. The dispersion is stirred for 24 h by a magnetic stirrer and finally filtered.
Additionally form A1 can be manufactured by competitive slurry conversion experiments with a mixture of a pseudopolymorphic form (for example S1, S2, S3 or mixtures of these) and form A1 (1:1) in Water/Methanol and Water/Ethanol mixtures with different alcohol contents at different temperatures. In the following table the conditions for the experiments leading to the pure form A1 are listed.
Approx. 20 mg of a pseudopolymorphic form (for example S1, S2, S3 or mixtures of these) and 20 mg of form A1 of Cilengitide are dispersed in 300 μl Water/alcohol mixture at 0° C., room temperature and 50° C. The dispersion is stirred for 24 h and additionally for 3 weeks at RT (25° C.) (long-term experiment) by a magnetic stirrer and finally filtered.

Data set [2] in a line: Slurry conversion and competitive slurry conversion in water, saline, buffer and other solvents. The data set is classed as physicochemical. The note with it: in the presence of aqueous based solvents (suspensions, wetted material), absence of methanol and/or ethanol. As for the experimental part: a) Crystalline tetrasolvates according to the invention and especially crystalline forms S1 and S2, can be obtained by slurry conversion from form A1 in a Methanol/Water mixture (70 v %:30 v %) at 25° C. for 2 days stirring time and Ethanol/Water mixture (60 v %:40 v %) at 25° C. for 18 days stirring time, respectively. General procedure:
Approx. 500 mg of form A1 of Cilengitide are dispersed in 5 ml solvent at room temperature. The dispersion is stirred for the mentioned time by a magnetic stirrer and finally filtered.
Form A1 of Cilengitide can be obtained by slurry conversion from pseudopolymorphic forms (for example S1, S2, S3 or mixtures of these) in Water at 25° C. An increased temperature (50° C.) accelerates the conversion to form A1.
Approx. 10 g of a pseudopolymorphic form (for example S1, S2, S3 or mixtures of these) of Cilengitide are dispersed in 50 ml deionised water at room temperature. The dispersion is stirred for 24 h by a magnetic stirrer and finally filtered.
Also the pure form form A1 can be manufactured by competitive slurry conversion experiments with a mixture of a pseudopolymorphic form (for example S1, S2, S3 or mixtures of these) and A1 (1:1) in Acetone, Acetonitrile, Isopropanol, physiological NaCl solution, Phosphate buffer (pH 7.4) and 1:1 (v:v) mixtures of Acetone, Acetonitrile, Isopropanol with Water at RT (25° C.).
Approx. […]

The format of data set [3] is physicochemical.
Description: Preferably, the anhydrates or ansolvates according to the invention and especially the crystalline form A1 can be characterised, alternatively or additionally, by dynamic vapour sorption experiments. The results can be obtained by standard techniques as described in Rolf Hilfiker, ‘Polymorphism in the Pharmaceutical Industry’, Wiley-VCH. Weinheim 2006 (Chapter 9: Water Vapour Sorption, and references therein). […] Eur. criteria.
Preferably, the tetrasolvates according to the invention, more preferably the tetrahydrates according to the invention and especially the crystalline form S3 can be characterised, alternatively or additionally, by dynamic vapour sorption experiments. The results can be obtained by standard techniques as described in Rolf Hilfiker, ‘Polymorphism in the Pharmaceutical Industry’, Wiley-VCH. Weinheim 2006 (Chapter 9: Water Vapour Sorption, and references therein).
Dynamic Vapor Sorption measurements are preferably obtained on a SMS DVS Intrinsic system. The results are preferably obtained by standard techniques as described by Rolf Hilfiker “Polymorphism in the Pharmaceutical Industry” Wiley-VCH Weinheim 2006 (Chapter 9: Water Vapour Sorption, and references therein.) Approx. 2-10 mg of samples are preferably weighed into an Aluminium 100 μL pan and placed in the sample incubator of the DVS instrument with microbalance. A nitrogen overall flow rate of 200 mL/min (combined dry and humid stream) is preferably used for humidification. Water vapor sorption isotherms are preferably acquired at 25° C. in the range 0% relative humidity to 98% relative humidity mostly with 10% relative humidity steps. For all relative humidity steps, an equilibrium condition of dm/dt≦0.0005 wt %/min are preferably used, with a minimum relative humidity step time of 10 minutes and a maximum relative humidity step time of 360 minutes which is preferably used as a timeout if the dm/dt criterai mentioned above is not been reached.
A SMS DVS I system is used for the dynamic vapour experiments regarding crystalline form S3. The results have been obtained by standard techniques as described in Rolf Hilfiker, ‘Polymorphism in the Pharmaceutical Industry’, Wiley-VCH. Weinheim 2006 (Chapter 9: Water Vapour Sorption, and references therein). […] During the water adsorption cycle there is shown an assembly of water molecules (ca. 10 wt%) in the lattice at elevated rh. In the second desorption cycle there is a loss of this amount of water.
(§1) A SMS DVS Intrinsic is used for the dynamic vapour experiments. The results are obtained by standard techniques as described in Rolf Hilfiker, ‘Polymorphism in the Pharmaceutical Industry’, Wiley-VCH. Weinheim 2006 (Chapter 9: Water Vapour Sorption, and references therein). […] Upon water vapour adsorption, an assembly of water molecules in the lattice is observed, with a maximum weight gain of approx. 8 wt % at elevated rh. In the second desorption cycle a total mass loss of approx. 9.9 wt % is observed. For a Cilengitide Dihydrate Di-Methanolate, the calculated Methanol content equals 9.3 wt %.
as §1, with “6.4” for “8”, “9.2” for “9.9”, “Di-Ethanolate,” for “Di-Methanolate,”, “Ethanol” for “Methanol”, “12.5” for “9.3”

Where [4] appears, read: 50° C. for 1 day, table of b579.
[5] abbreviates: 50° C. for 1 day, table of b595.

Results on one substance are retold here after US8765684B2, “Solid materials of {[(2S,5R,8S,11S)-5-benzyl-11-(3-guanidino-propyl)-8-isopropyl-7-methyl-3,6,9,12,15-pentaoxo-1,4,7,10,13-pentaaza-cyclopentadec-2-yl]-acetic acid} and methods for obtaining them” (Merck Patent GmbH, priority 2009, dated 2014).

For the substance “cyclo-(Arg-Gly-Asp-DPhe-NMe-Val) [crystalline form A1]”, the “Ethanol in the mixture with Water leading to pure form A1” value is reported as 0-10 v % in data set [1] (0° C. for 1 day), 0-80 v % in data set [1] (setting [5]), 0-20 v % in data set [1] (RT for 3 weeks) and 0-30 v % in data set [1] (RT for 1 day). The “Methanol in the mixture with Water leading to pure form A1” value in data set [1] (0° C. for 1 day) was 0 v %; in data set [1] (setting [5]), 0-70 v %; in data set [1] (RT for 3 weeks) it was 0-40 v %; in data set [1] (RT for 1 day), 0-50 v %. Moreover, the “Ethanol in the mixture with Water leading to form A1 (no pseudopolymorphic form obtained)” value in data set [1] (setting [4]) is 90-100 v %. In data set [1] (setting [4]), the “Methanol in the mixture with Water leading to form A1 (no pseudopolymorphic form obtained)” value was 90-100 v %. Besides, the “Thermodynamic stability of the form” value in data set [2] is recorded as “thermodynamically stable form”. Also, the “Physical stability of the crystal form versus relative humidity” value in data set [3] is “physical stability of the crystal form throughout the entire relative humidity range (0-98%)”. Also, the Hygroscopicity classification result in data set [3] (acc. to Ph. Eur. criteria, water vapour sorption 25° C.) is given as “non-hygroscopic”. The Water uptake levels result in data set [3] (up to 98% relative humidity, 25° C.) is on record as “small”. In addition, the “Formation or conversion to a hydrate” value in data set [3] (water vapour sorption up to 98% relative humidity) was “No formation or conversion to a hydrate is observed”.
